US7544703B2, “Cyclic compound having 4-pyridylalkylthio group having substituted or unsubstituted amino group introduced therein” (Santen Pharmaceutical Co., Ltd., priority 2004, dated 2009)
Structures can show the parent of a compound that is named as a salt.

Columns and labels:
[1] = tested on: adjuvant arthritis models in rats; experiment: Paw edema inhibitory action test using adjuvant arthritis models in rats; assay type: in vivo; settings: 504 h; Lewis rat, adjuvant-untreated (secondary inflammation) paw, day 21; 10 mg/kg/day oral once a day, day 0 to day 20; average of 8 rats per group; read-out: Paw edema inhibition rate (%)
Experimental: A paw edema inhibitory action test of the compounds of the present invention was performed using an adjuvant arthritis model in rats, which is one of the widely-used methods of evaluating in vivo antiarthritis effects of drugs.
As one of the widely-used methods of evaluating antiarthritic effects of drugs, a paw edema inhibitory action test using adjuvant arthritis models in rats is known. Accordingly, a paw edema inhibitory action test of the compounds of the present invention was performed, the paw edema inhibition rate was calculated, and the antiarthritic effect of each of the compounds of the present invention was evaluated using the obtained rate as an index.
A 1% aqueous methyl cellulose solution was added to each test compound to suspend it, whereby a 2 mg/mL test compound suspension was prepared.
Liquid paraffin was added to Mycobacterium butyricum to suspend it, whereby 6 mg/mL adjuvant was prepared.
• 1) The adjuvant (0.1 mL) was injected subcutaneously into a left hind paw sole of each rat (male, 9 weeks of age, Lewis rat) to induce arthritis. • 2) From the adjuvant injection day (i.e. on day 0) to day 20, the test compound suspension (10 mg/kg/day) was orally administered once a day consecutively. • 3) On the adjuvant injection day, day 1, day 4, day 7, day 11, day 14, day 18 and day 21, each paw volume of both hind paws was measured with a plethysmometer. • 4) A test was performed in the same manner as in 1) to 3) except that the 1% aqueous methyl cellulose solution was used instead of the test compound suspension, and the result was used as a control. (Method of Evaluation)
Each paw edema inhibition rate of paw edema in an adjuvant-untreated paw (secondary inflammation paw) in each test compound administration group to paw edema in a secondary inflammation paw in a control group was calculated, and the antiarthritic effect of each of the compounds of the present invention was evaluated using the obtained rate as an index.
The paw edema rate was calculated according to the following calculation equation 1, and then the paw edema inhibition rate (the average of 8 rats per group), which was used as an index of the antiarthritic effect, was calculated according to the calculation equation 2. Paw edema rate (%)=(Paw volume after adjuvant treatment/paw volume before adjuvant treatment)×100 (Calculation Equation 1) Paw edema inhibition rate (%)=100−{(Sx−100)/(So−100)}×100 (Calculation Equation 2) So: Paw edema rate of control group Sx: Paw edema rate of test compound suspension administration group (Test Results and Discussion)

[2] = tested on: choroidal neovascularization models in rats; experiment: Neovascularization incidence test using laser-induced choroidal neovascularization models in rats; assay type: in vivo; settings: 168 h; Brown Norway rat, krypton laser photocoagulation; 30 mg/kg/day oral once a day for 7 days; fluorescein fundus photography on day 7; average of 3 to 4 rats and 6 to 8 eyes; read-out: Ratio of neovascularization incidence rate (% of Control)
Experimental: A neovascularization incidence test of the compounds of the present invention was performed using a choroidal neovascularization model in rats, which is one of the widely-used methods of evaluating in vivo choroidal neovascularization inhibitory effects of drugs.
As one of the widely-used methods of evaluating choroidal neovascularization inhibitory effects of drugs, a neovascularization incidence test using choroidal neovascularization models in rats was reported in Graefe's Arch. Cli. Exp. Ophthalmol., 235, 313-319 (1997). According to the method described in the above-mentioned document, a neovascularization incidence test of the compounds of the present invention was performed, the ratio of neovascularization incidence rate of each of the compounds of the present invention administration groups to a neovascularization incidence rate of vehicle administration group (control group) was calculated, and the choroidal neovascularization inhibitory effect of each of the compounds of the present invention was evaluated using the obtained ratio as an index.
A 1% aqueous methyl cellulose solution was added to each test compound to suspend it, whereby a 6 mg/10 mL test compound suspension was prepared.
• 1) A 7:1 mixed solution (1 mL/kg) of a 5% ketamine hydrochloride injection and a 2% xylazine hydrochloride injection was administered intramuscularly to rats (Brown Norway male rat, 8 weeks of age, weight: 200 to 250 g) to anesthetize them systemically. • 2) A tropicamide-phenylephrine hydrochloride ophthalmic solution (trade name: Mydrin-P) was instilled into eyes to cause mydriasis, and then photocoagulation was performed in a Bruch's membrane of each rat using a krypton laser photocoagulation apparatus.
The laser photocoagulation was performed at 8 spots per eye sparsely avoiding thick retinal vessels in a posterior section of ocular fundus and focusing on the deep layer of the retina. Photocoagulation conditions were adjusted to 100 μm of spot size, 100 mW of intensity and 0.1 sec. dulation. • 3) After the photocoagulation, the ocular fundus was photographed to confirm photocoagulation (laser irradiation) sites. (Method of Test and Method of Measurement) • 1) From the laser photocoagulation day (i.e. on day 0) to day 6, the test compound suspension (30 mg/kg/day) was administered orally once a day for 7 consecutive days. • 2) As the vehicle administration group (control group), a test was performed in the same manner as in 1) except that the 1% aqueous methyl cellulose solution was used instead of the test compound suspension, and the result was used as a control. (Method of Evaluation) • 1) On day 7 after the photocoagulation, 0.1 mL of a 10% aqueous fluorescein solution was injected into a tail vein of the rat, and fluorescein fundus photography was performed. • 2) Next, in the fluorescein fundus photography, a spot where fluorescence leak was not observed was judged as negative, and a spot where fluorescence leak was observed was judged as positive. Photocoagulation sites where a little fluorescence leak was observed were judged as positive when two such sites are present. • 3) The neovascularization incidence rate was calculated according to the calculation equation 1. The ratio of the neovascularization incidence rate of the test compound administration group to that of the vehicle administration group was calculated according to the calculation equation 2 using the neovascularization incidence rate of the respective administration groups. […]

| SMILES | inhibition in vivo at 10 mg/kg/day [1] [%] | response vs control in vivo at 30 mg/kg/day [2] [%] |
| --- | --- | --- |
| CNc1cc(CSc2ncccc2C(=O)Nc2ccc(OC(F)(F)F)cc2)ccn1 [Compound 3-8, 2-(2-Methylaminopyridin-4-ylmethylthio)-N-(4-trifluoromethoxyphenyl)pyridine-3-carboxamide monohydrochloride] | 30 | 6 |
| CNC(=O)Nc1cc(CSc2ncccc2C(=O)Nc2cc(C)cc(C)c2)ccn1 [Compound 9-1, N-(3,5-Dimethylphenyl)-2-[2-(N′-methylureido)pyridin-4-ylmethylthio]pyridine-3-carboxamide] | 55 | 8 |
| Cc1cc(C)cc(NC(=O)c2cccnc2SCc2ccnc(N)c2)c1 [Compound 3-1, 2-(2-Aminopyridin-4-ylmethylthio)-N-(3,5-dimethylphenyl)pyridine-3-carboxamide monohydrochloride] | 48 | 12 |
| CC(=O)Nc1cc(CSc2ncccc2C(=O)Nc2cc(C)cc(C)c2)ccn1 [Compound 4-1, 2-(2-Acetylaminopyridin-4-ylmethylthio)-N-(3,5-dimethylphenyl)pyridine-3-carboxamide] | 90 | 3 |
| CC(=O)Nc1cc(CSc2ncccc2C(=O)Nc2ccc(Cl)cc2)ccn1 [Compound 4-10, 2-(2-Acetylaminopyridin-4-ylmethylthio)-N-(4-chlorophenyl)pyridine-3-carboxamide] | 71 | 9 |
| CC(=O)OCC(=O)Nc1cc(CSc2ncccc2C(=O)Nc2cc(C)cc(C)c2)ccn1 [Compound 10-1, 2-(2-Acetoxyacetylaminopyridin-4-ylmethylthio)-N-(3,5-dimethylphenyl)pyridine-3-carboxamide] | 59 | 11 |
| Nc1cc(CSc2ncccc2C(=O)Nc2ccc(OC(F)(F)F)cc2)ccn1 [Compound 3-10, 2-(2-Aminopyridin-4-ylmethylthio)-N-(4-trifluoromethoxyphenyl)pyridine-3-carboxamide] | 35 | 7 |
| CC(=O)Nc1cc(CSc2ncccc2C(=O)Nc2ccc(OC(F)(F)F)cc2)ccn1 [Compound 4-11, 2-(2-Acetylaminopyridin-4-ylmethylthio)-N-(4-trifluoromethoxyphenyl)pyridine-3-carboxamide] | 65 | 0 |
| O=C(CO)Nc1cc(CSc2ncccc2C(=O)Nc2ccc(OC(F)(F)F)cc2)ccn1 [Compound 12-1, 2-(2-Hydroxyacetylaminopyridin-4-ylmethylthio)-N-(4-trifluoromethoxyphenyl)pyridine-3-carboxamide] | 48 | 6 |
